Source: publication PMC10897598, “TwinF interface inhibitor FP802 stops loss of motor neurons and mitigates disease progression in a mouse model of ALS” (Cell Reports Medicine, 2024)
Read-outs that look alike come from different tables or passages of the source.

Key:
[1] = system: primary mouse cortical neurons; settings: FP802 10 μM, 30 min pre-incubation, NMDA 20 μM, 2 h
Method: Primary mouse cortical neurons were pre-incubated with FP802 (10 μM) or vehicle for 30 min before a 2-h treatment with either bicuculline (Bic, 50 μM) to induce action potential (AP) bursting or NMDA (20 μM) to induce excitotoxic insults. The mRNA levels of Arc, Atf3, Bdnf, c-Fos, Inhibin beta A, and Npas4 were assessed by RT-qPCR. Data represent means ± SD, n = 3; ns: no significant difference, ∗p < 0.05, ∗∗p < 0.01, ∗∗∗p < 0.001, two-way ANOVA followed by Dunnett's multiple comparisons.
Primary mouse cortical neurons were prepared as previously described.[43]^,[44] Briefly, brain cortices from neonatal mice (C57/Bl6, RRID:MGI:7264769) were removed and cut into small pieces in the dissociation medium (in mM: 81.8 Na2SO4, 30 K2SO4, 15.85 MgCl2, 0.25 CaCl2, 1.0 HEPES, 1050.0 kynurenic acid; 0.2% phenol red and 0.36% glucose). The tissues were then digested with papain latex (10 units/mL) in the dissociation medium supplemented with 0.45 mg/mL L-cysteine for two times of 15 min in a 37°C water bath with stirring at 15 rpm. Then the tissue was washed twice with the dissociation medium and incubated with trypsin inhibitor (0.01 g/mL) in dissociation medium for 3 × 5 min. The samples were then triturated into single cell solution and plated at a density of 0.25 × 10^6 cell per well in 24-well plates, which have been pretreated with poly-D-lysine (26.7 mg/μL) and laminin (6.7 mg/μL). […]

30 common targets = assay: Pharmacology safety screening, radioligand binding assays; settings: 10 µM; significant = over 50% inhibition or stimulation
Method: Pharmacology safety of FP802 was evaluated in radio ligand binding assays carried out by Eurofins Panlabs Discovery Services Taiwan, Ltd. Significant responses are defined as over 50% inhibition or stimulation in the primary assays.
Table S1. Pharmacology safety profile of FP802. […]

[2] = system: human iPSC-derived forebrain organoids; assay: NMDA-induced neurotoxicity in human iPSC-derived forebrain organoids; type: cell-based; settings: for IC50: Homo sapiens, NMDA 300 μM, read-out: IC50, protection against NMDA-induced neurotoxicity
Method: The generation of human-iPSC-derived forebrain organoids was carried out in accordance with the regulations of Heidelberg University. The sporadic ALS iPSC line and the SOD1^G94A ALS iPSC line were purchased from Cedars-Sinai (CS2XWCiALS-nxx and CS2RJViALS-nxx). The healthy control iPSC lines were from Dr. Jochen Utikal (DKFZ, Germany). Forebrain organoids were generated and maintained as described previously.[37]^,[45] Briefly, hiPSCs were dissociated into single cells by Accutase and aggregated in round bottom 96-microwell plates with 5 min centrifugation at 600 rpm. On the second day, hiPSC aggregates were collected and transferred into low attachment 35 mm dishes (24 aggregates/dish) and kept in neural induction medium (DMEM/F12 medium supplemented with 1× penicillin/streptomycin, 1× Normocin, 1× GlutaMAX, 1× N-2 supplement, 2× B27 without vitamin A, 500 nM dorsomorphin, 50 ng/mL recombinant human noggin, 10 μM SB431542, 2 μM IWP-2, 1 μM cyclopamine, and 0.1% β-mercaptoethanol) for 3 days with a daily medium change. Recombinant human FGF (10 ng/mL) was present in neural induction medium from day 4 to day 7 with one medium change on day 5.5. On day 7, neural induction medium was changed to proliferation medium (neurobasal medium supplemented with 1× GlutaMAX, 1× penicillin/streptomycin, 1× Normocin, 1× B27 without vitamin A, 10 ng/mL recombinant human FGF, 10 ng/mL recombinant human EGF, 2 μM IWP-2, and 1 μM cyclopamine) for two weeks with medium change every 2–3 days. In week 4–5, the proliferation medium was changed to differentiation medium (neurobasal medium supplemented with 1× GlutaMAX, 1× penicillin/streptomycin, 1× Normocin, 10 ng/mL recombinant human BDNF, and 10 ng/mL recombinant human NT-3) with medium change every 2–3 days. From week 6, the organoids were kept in the maturation medium (BrainPhys medium supplemented with 1× GlutaMAX, 1× penicillin/streptomycin, 1× Normocin) until week 18–20 when they were used for experiments.
The analysis of forebrain organoid cell types that undergo NMDA-induced cell death was done using immunostainings of cryosections of 20-week-old forebrain organoids with antibodies against the neuronal markers, NeuN and Myelin transcription factor 1 like (Myt1L) protein, and the astrocyte marker, glial fibrillary acidic protein (GFAP) using the following procedure. All organoids were washed with PBS twice and fixed using 4% paraformaldehyde in PBS for 30 min, followed by 24 h incubation with 30% sucrose solution in PBS. Organoids were snap frozen on dry ice in cryoprotectants and 30 μm cryosections were prepared for staining. […] Cells stained with NeuN, Myt1L, and Hoechst were automatically counted with ImageJ with the particle analyzer with a self-developed macro using the Binary-Watershed function, size exclusion was set at 60 μm^2. NeuN-positive and Myt1L-positive post-mitotic neurons were counted in confocal section z-stacks of whole organoids (5–8 organoids from 2 batches) with ImageJ with the particle analyzer with a self-developed macro using the Binary-Watershed function, size exclusion was set at 60 μm^2 and expressed as a percentage of total Hoechst-stained nuclei. GFAP staining was quantified by measuring the fluorescent signals of z-stacks of confocal sections of whole organoids (5–6 organoids from 2 batches) using ImageJ and expressed as arbitrary units. […]

[3] = system: primary mouse cortical neurons; assay: Glutamate neurotoxicity assay in primary cortical neurons; type: cell-based; settings: Cortical neurone, 20 μM glutamate, compound added 30 min prior, nuclear mCherry-positive neurons, read-out: IC50, protective activity against glutamate-mediated neurotoxicity
Method: On DIV10, vehicle (DMSO) or FP802 were added to the primary cortical cultures 30 min prior to glutamate insult. Images were acquired following the glutamate application for 24 h with 2 h intervals, where 9 images were obtained via a 20x objective for each condition at each time point with IncuCyte S3 Live-Cell Analysis System (Sartorius AG, Germany).

CCN(CCN)Cc1cccc(Cl)c1 [FP802]
transcriptional shut-off induced by eNMDARs [1]: eliminated
NMDA bath application-induced expression of IEGs Atf3, Arc, Bdnf, cFos, Inhibin beta A, Npas4 ([1]; RT-qPCR, levels comparable to bicuculline-induced AP bursting): boosted
binding activities in radioligand binding safety panel (30 common targets): No significant binding activities
IC50 ([2]; SOD1G94A ALS organoids): 9 µM
IC50 ([2]; healthy control-1 organoids): 26 µM
IC50 ([2]; healthy control-2 organoids): 15 µM
IC50 ([2]; sporadic ALS organoids): 9.3 µM
NMDA-induced death of neurons in ALS patient-derived organoids ([2]; NMDA 300 μM 24 h, NeuN/Myt1L immunostaining and viability, dose-dependent): effectively blocked
IC50 [3]: 8.7 µM
